Patent US5401739A, “Benzothiadiazine derivatives” (Taiho Pharmaceutical Co. Ltd., priority 1991, dated 1995)

What was measured:
[1] = tested on: gastric acid secretion; assay: Inhibitory activity on gastric acid secretion, comparison with Compound A (Pharmacological Test 3); type: in vivo, Male Wistar rats; conditions: 30 mg/kg; for Percent inhibition on gastric acid secretion: Table 7, intraduodenal as in Test 1
Protocol: (§1) Male Wistar rats (weighing 172 to 200 g) were divided into groups, 7 to 8 rats in each group. The animals were fasted for 24 hours. Under ether anesthesia, the abdomen was incised and the pylorus was ligated according to the method of Shay et al. [Gastroenterology, 1, 420 (1963)]. The animals were sacrificed 4 hours later, and the stomach was removed to collect gastric juice, which was then centrifuged (3000 r.p.m., 10 minutes). The volume of gastric juice and the acidity were measured. The compound to be tested was dissolved in water, and the solution was intraduodenally given to animals at varying doses immediately after the ligation of the pylorus.
Inhibitory activity on gastric acid secretion was measured in the same manner as in Pharmacological Test 1 with use of Compound 2 below as the present compound and, for comparison, Compound A below of Example 37c in JP-A-116277/1984.

[2] = tested on: hydrochloric acid induced-ulcer; assay: Effect on hydrochloric acid induced-ulcer, comparison with Compound A (Pharmacological Test 4); type: in vivo, Male Wistar rats; conditions: 30 mg/kg; for Percent inhibition of effect on hydrochloric acid induced-ulcer: Table 8, oral as in Test 2
Protocol: (§2) Male Wistar rats (weighing 156 to 189 g) were divided into groups, 5 to 8 rats in each group. The animals were fasted for 24 hours, and 5 ml/kg of 0.6N hydrochloric acid was given orally. The animals were sacrificed 1 hour later. The stomach was removed, and 1% formalin was injected into the removed stomach to fix the stomach. The stomach was then incised open along the greater curvature. The length (mm) of gastric lesions was measured, summed and used as an ulcer index. The compound to be tested was dissolved in water, and the solution was orally given to animals at varying doses 1 hour before the injection of hydrochloric acid.

[3] = Hygroscopicity (remark in Table 1); type: physicochemical
[4] = tested on: gastric acid secretion; assay: Inhibitory activity on gastric acid secretion (pylorus ligation, Pharmacological Test 1); type: in vivo, Male Wistar rats
Protocol: Inhibitory activity on gastric acid secretion:
as §1

[5] = tested on: hydrochloric acid induced-ulcer; assay: Effect on hydrochloric acid induced-ulcer (Pharmacological Test 2); type: in vivo, Male Wistar rats; conditions: 1 h before 0.6N HCl
Protocol: Effect on hydrochloric acid induced-ulcer:
as §2

[6] = Table 3, 10 mg/kg intraduodenal, 4 h, control 2.5 ± 0.5
[7] = Table 3, 10 mg/kg intraduodenal, 4 h, control 65.2 ± 10.7
[8] = Table 3, 10 mg/kg intraduodenal, 4 h, control 162.3 ± 41.6

With `CN1C(NCCCOc2cccc(CN3CCCCC3)c2)=NS(=O)(=O)c2ccccc21` [Compound A, reference compound] the “Percent inhibition on gastric acid secretion” value [1] was 96.2% and the “Percent inhibition of effect on hydrochloric acid induced-ulcer” value [2] was 59.4%.
In the case of `COc1ccc2c(c1)N(C)C(NC/C=C\COc1cccc(CN3CCCCC3)c1)=NS2(=O)=O` [Compound 29, 3-[N-[4-[3-(piperidinomethyl)phenoxy]-(cis) 2-butenyl]amino]-4-methyl-6-methoxy-1,2,4-benzothiadiazine-1,1-dioxide], the Hygroscopicity [3] is reported as “Hygroscopic”.
In the case of `CCCCN1C(NC/C=C\COc2cccc(CN3CCCCC3)c2)=NS(=O)(=O)c2ccccc21` [Compound 28], the “Volume of gastric juice” value [4, 6] is reported as 2.2 ± 0.8 mL, the Acidity [4, 7] is reported as 59.2 ± 12.4 μ Eq/ml and the Total acid output [4, 8] is reported as 133.3 ± 69.0 μ Eq. The “Volume of gastric juice” value ([4]; Table 3, 30 mg/kg intraduodenal, 4 h, control 2.5 ± 0.5) was 1.5 ± 0.5 mL, the Acidity ([4]; Table 3, 30 mg/kg intraduodenal, 4 h, control 65.2 ± 10.7) was 32.0 ± 14.4 μ Eq/ml and the Total acid output ([4]; Table 3, 30 mg/kg intraduodenal, 4 h, control 162.3 ± 41.6) was 53.6 ± 32.9 μ Eq. For the same compound, the “Volume of gastric juice” value ([4]; Table 3, 100 mg/kg intraduodenal, 4 h, control 2.5 ± 0.5) was 1.1 ± 0.5 mL, the Acidity ([4]; Table 3, 100 mg/kg intraduodenal, 4 h, control 65.2 ± 10.7) was 4.9 ± 8.2 μ Eq/ml and the Total acid output ([4]; Table 3, 100 mg/kg intraduodenal, 4 h, control 162.3 ± 41.6) was 4.6 ± 7.1 μ Eq. For the same compound, the “Percent inhibition (ulcer index)” value ([5]; Table 6, 10 mg/kg oral) was 22.6%, the Ulcer index ([5]; Table 6, 10 mg/kg oral, control 150.0 ± 35.2) was 116.1 ± 34.9 mm and the “Percent inhibition (ulcer index)” value ([5]; Table 6, 30 mg/kg oral) was 62.8%. The Ulcer index ([5]; Table 6, 30 mg/kg oral, control 150.0 ± 35.2) was 55.8 ± 32.4 mm, the “Percent inhibition (ulcer index)” value ([5]; Table 6, 100 mg/kg oral) was 96.6% and the Ulcer index ([5]; Table 6, 100 mg/kg oral, control 150.0 ± 35.2) was 5.1 ± 4.1 mm.
With `COc1ccc(CN(CCCOc2cccc(CN3CCCCC3)c2)C2=NS(=O)(=O)c3ccccc3N2C)cc1` [Compound 2, 3-[N-[3-[3-(piperidinomethyl)phenoxy]propyl]-4'-methoxybenzylamino]-4-methyl-1,2,4-benzothiadiazine-1,1-dioxide] the Acidity ([4]; Table 2, 3 mg/kg intraduodenal, 4 h, control 78.4 ± 12.0) was 64.8 ± 15.1 μ Eq/ml, the Total acid output ([4]; Table 2, 3 mg/kg intraduodenal, 4 h, control 391.6 ± 161.6) was 247.8 ± 96.9 μ Eq and the “Volume of gastric juice” value ([4]; Table 2, 3 mg/kg intraduodenal, 4 h after pylorus ligation, control 4.8 ± 1.5) was 3.7 ± 0.9 mL. The “Volume of gastric juice” value ([4]; Table 2, 10 mg/kg intraduodenal, 4 h, control 4.8 ± 1.5) was 3.4 ± 1.8 mL, the Acidity ([4]; Table 2, 10 mg/kg intraduodenal, 4 h, control 78.4 ± 12.0) was 54.9 ± 16.1 μ Eq/ml and the Total acid output ([4]; Table 2, 10 mg/kg intraduodenal, 4 h, control 391.6 ± 161.6) was 205.9 ± 165.0 μ Eq. For the same compound, the “Volume of gastric juice” value ([4]; Table 2, 30 mg/kg intraduodenal, 4 h, control 4.8 ± 1.5) was 2.4 ± 1.4 mL, the Acidity ([4]; Table 2, 30 mg/kg intraduodenal, 4 h, control 78.4 ± 12.0) was 30.9 ± 16.7 μ Eq/ml and the Total acid output ([4]; Table 2, 30 mg/kg intraduodenal, 4 h, control 391.6 ± 161.6) was 85.3 ± 92.7 μ Eq. The “Percent inhibition (ulcer index)” value ([5]; Table 4, 3 mg/kg oral) was 33.6%, the Ulcer index ([5]; Table 4, 3 mg/kg oral, control 72.7 ± 23.7) was 48.3 ± 17.8 mm and the “Percent inhibition (ulcer index)” value ([5]; Table 4, 10 mg/kg oral) was 55.8%. The Ulcer index ([5]; Table 4, 10 mg/kg oral, control 72.7 ± 23.7) was 32.1 ± 24.9 mm, the “Percent inhibition (ulcer index)” value ([5]; Table 4, 30 mg/kg oral) was 85.0% and the Ulcer index ([5]; Table 4, 30 mg/kg oral, control 72.7 ± 23.7) was 10.9 ± 17.2 mm. The “Percent inhibition (ulcer index)” value ([5]; Table 4, 100 mg/kg oral) was 94.5%, the Ulcer index ([5]; Table 4, 100 mg/kg oral, control 72.7 ± 23.7) was 4.0 ± 6.1 mm and the “Percent inhibition on gastric acid secretion” value [1] was 95.1%. The “inhibitory activity on gastric acid secretion, compared with Compound A” value ([1]; in words, vs Compound A) was “almost equal to Compound A”, the “Percent inhibition of effect on hydrochloric acid induced-ulcer” value [2] was 86.9% and the “effect on hydrochloric acid induced-ulcer, compared with Compound A” value ([2]; in words, vs Compound A) was “extremely excellent than Compound A”.
For `CN1C(NC/C=C\COc2cccc(CN3CCCCC3)c2)=NS(=O)(=O)c2ccccc21` [Compound 22, 3-[N-[4-[3-(piperidinomethyl)phenoxy]-(cis) 2-butenyl]amino]-4-methyl-1,2,4-benzothiadiazine-1,1-dioxide], the “Volume of gastric juice” value ([4]; Table 3, 3 mg/kg intraduodenal, 4 h, control 2.5 ± 0.5) was 2.0 ± 0.6 mL, the Acidity ([4]; Table 3, 3 mg/kg intraduodenal, 4 h, control 65.2 ± 10.7) was 8.6 ± 8.2 μ Eq/ml and the Total acid output ([4]; Table 3, 3 mg/kg intraduodenal, 4 h, control 162.3 ± 41.6) was 15.5 ± 9.6 μ Eq. For the same compound, the “Volume of gastric juice” value [4, 6] was 2.3 ± 1.0 mL, the Acidity [4, 7] was 2.1 ± 3.9 μ Eq/ml and the Total acid output [4, 8] was 4.5 ± 9.4 μ Eq. The “Percent inhibition (ulcer index)” value ([5]; Table 5, 10 mg/kg oral) was 16.5%, the Ulcer index ([5]; Table 5, 10 mg/kg oral, control 61.2 ± 25.4) was 51.1 ± 20.4 mm and the “Percent inhibition (ulcer index)” value ([5]; Table 5, 30 mg/kg oral) was 35.6%. For the same compound, the Ulcer index ([5]; Table 5, 30 mg/kg oral, control 61.2 ± 25.4) was 39.4 ± 13.2 mm, the “Percent inhibition (ulcer index)” value ([5]; Table 5, 100 mg/kg oral) was 48.4% and the Ulcer index ([5]; Table 5, 100 mg/kg oral, control 61.2 ± 25.4) was 31.6 ± 5.0 mm.
